Columns and labels:
[1] = Aggregation of synuclein proteins under high temperature conditions (SDS-PAGE/Coomassie brilliant blue); assay type: physicochemical; conditions: 20 µM protein, pH 6.9, 65 °C, 0, 8 and 20 hours
Method: Each of the protein samples (20 µM) was incubated under pH 6.9, 65° C. conditions for 0, 8, and 20 hours. The incubated samples were run over SDS-PAGE and the resulting protein bands visualized by Coomassie/brilliant blue staining (FIG. 2).

[2] = target: SDS-resistant complexes of α-synuclein and Aβ1-40 (Homo sapiens, UniProt P37840); test: Formation of SDS-resistant complexes of α-synuclein and Aβ1-40, immunoblotting analysis; assay type: biochemical; conditions: 10 µM α-synuclein, 10 µM Aβ1-40, 100 µM peptide
Excerpt: Those in the art generally agree that β-Synuclein blocks Aβ proto-fibril formation by one of two possible mechanistic pathways. In the first pathway, inhibition is facilitated through indirectly blocking NAC or α-synuclein interaction with Aβ. In the second possible pathway, inhibition is facilitated by the direct blocking Aβ aggregation.

B103 neuroblastoma cells = test: Aβ cytotoxicity in B103 neuroblastoma cells; assay type: cell-based; conditions: for effect on Aβ cytotoxicity / cell survival: Aβ 20 µM, serum-free, three days, protein 20 µM
Method: When B103 neuroblastoma cells were incubated with Aβ (20 µM) under serum-free conditions for three days, dead cells become prominent due to the cytotoxic effects of Aβ.

α-synuclein tg mice = test: Bigenic crosses: β-synuclein overexpression in α-synuclein tg mice (rotorod, neuropathological analysis); assay type: in vivo
Excerpt: Motor deficits in Lewy body disease are associated with degeneration of the nigral dopaminergic neurons projecting to the striatum. To determine if loss of dopaminergic input to the striatum in transgenic mice is associated with Parkinson's disease related neurological impairments, mice were examined with a rotorod test, a behavioral testing mechanism well known to those familiar with such procedures. […] The dopaminergic and behavioral deficits were detected only in the high expression line and not in low-expression lines. […] This may lead to the conclusion that a critical threshold of α-synuclein accumulation is required for dopaminergic and behavioral deficits to become detectable. None-the-less, the evaluation of such neurophysiological characteristics, as previously described, are well known to those of skill in such evaluations. As such, it is apparent that the increased expression of wild-type α-synuclein plays a key role in the pathogenesis of neurodegenerative conditions associated with amyloidogenesis.

B103 cells = B103 cells overexpressing synuclein: cell adhesion and neurite extension; assay type: cell-based; conditions: catalase 100 µg/ml, superoxide dismutase 100 U/ml, vitamin E 500 µM
[3] = test system: GT1-7 murine hypothalamic neuronal cells; test: GT1-7 cells overexpressing α-synuclein: mitochondrial alterations and oxidative stress; assay type: cell-based
Method: To determine if the overexpression of α-synuclein causes dysregulated neuronal function, GT1-7 cells were transfected with the mammalian expression vector pCR3.1 (Invitrogen) using standard transfection protocols well known in the art. The cells were transfected with or without insertion of murine α-synuclein cDNA. The resulting expression of α-synuclein was measured at both mRNA and protein levels using RPA and immunoblotting analysis. Clones which either overexpressed or underexpressed α-synuclein (via transfection with an anti-sense plasmid) were selected and analyzed. […] These alterations were ameliorated by pretreatment with the anti-oxidant, vitamin E. Furthermore, α-synuclein overexpression in GT1-7 cells results in the formation of α-synuclein—immunopositive inclusion-like structures.

β-synuclein .delta.2: β-synuclein mutant with amino acids 63-72 of NAC N-terminal inserted by site-directed mutagenesis
formation of aggregates / amyloid-like fibrils under high temperature conditions [1]: aggregated to form amyloid-like fibrils

51-60 (Seq ID #11): synthetic peptide, amino acids 51-61 of β-synuclein: Gly Val Ala Ser Val Ala Glu Lys Thr Lys Glu (GVASVAEKTKE; listed as Homo sapiens)
suppression of the formation of SDS-resistant complexes of α-synuclein and Aβ1-40 [2]: significant suppression
suppression of the formation of SDS-resistant complexes of α-synuclein and Aβ1-40 ([2]; listed as a.a. 51-61 of β-synuclein): suppression

α-synuclein [reference compound]
formation of aggregates / amyloid-like fibrils under high temperature conditions [1]: positive aggregation
effect on Aβ cytotoxicity / cell survival (B103 neuroblastoma cells): detrimental to cell survival
effect on Aβ toxicity in neuroblastoma cell (summary statement) (B103 neuroblastoma cells): enhances Aβ toxicity

β-synuclein
formation of aggregates / amyloid-like fibrils under high temperature conditions [1]: fails to show any formation of aggregates
effect on Aβ cytotoxicity / cell survival (B103 neuroblastoma cells): blocked the effects of this cytotoxicity
effect on Aβ toxicity in neuroblastoma cell (summary statement) (B103 neuroblastoma cells): protective
motor deficits, rotorod performance (α-synuclein tg mice; β-synuclein overexpression in α-synuclein tg mice (bigenic crosses), FIG. 14): reduced the motor deficits
neuronal loss (α-synuclein tg mice; β-synuclein overexpression in α-synuclein tg mice, FIG. 16): reduction neuronal loss
neuronal inclusions (α-synuclein tg mice; β-synuclein overexpression in α-synuclein tg mice, neuropathological analysis, FIG. 15): reduction of neuronal inclusions

superoxide dismutase
effect of anti-oxidants on altered adhesion and neurite outgrowth of synuclein overexpressing cells (B103 cells): little effect

β-synuclein .delta.1: β-synuclein mutant with amino acids 72-83 of NAC inserted by site-directed mutagenesis
formation of aggregates / amyloid-like fibrils under high temperature conditions [1]: aggregated to form amyloid-like fibrils

vitamin E
effect of anti-oxidants on altered adhesion and neurite outgrowth of synuclein overexpressing cells (B103 cells): little effect
effect of pretreatment on alterations caused by α-synuclein overexpression (mitochondrial alterations, free radicals, glutathione, gonadotropin-releasing hormone secretion) [3]: ameliorated

catalase
effect of anti-oxidants on altered adhesion and neurite outgrowth of synuclein overexpressing cells (B103 cells): little effect

— patent US7795495B2, “Transgenic mice for screening for inhibitors of protein aggregation and methods for making and using them” (The Regents of the University of California, priority 2000, dated 2010)
